Reference: ChEMBL document CHEMBL4340530, “Peptide-based covalent inhibitors of MALT1 paracaspase” (Bioorg Med Chem Lett, 2019)
The source made the active and inactive calls. The calls are words filed in the database; no cut-off is given here.

What was measured:
Trypsin (Homo sapiens) [1] = target: T1, Trypsin (Homo sapiens) (UniProt P07477+P07478+P35030); experiment: Inhibition of trypsin (unknown origin) at 10 uM relative to control; assay type: protein assay
Caspase-6 (Homo sapiens) = Caspase-6 (Homo sapiens) (UniProt P55212); experiment: Inhibition of caspase-6 (unknown origin) at 10 uM
[2] = target: Cathepsin B (Homo sapiens) (UniProt P07858); experiment: Inhibition of cathepsin B (unknown origin) at 1 uM relative to control
[3] = target: Tryptase beta-2 (Homo sapiens) (UniProt P20231); experiment: Inhibition of tryptase b2 (unknown origin) at 1 uM relative to control
[4] = target: Coagulation factor X (Homo sapiens) (UniProt P00742); experiment: Inhibition of factor Xa (unknown origin) at 10 uM
[5] = target: T2, Cathepsin K (Homo sapiens) (UniProt P43235); experiment: Inhibition of cathepsin K (unknown origin) at 1 uM relative to control
T2 sequence (whole entry): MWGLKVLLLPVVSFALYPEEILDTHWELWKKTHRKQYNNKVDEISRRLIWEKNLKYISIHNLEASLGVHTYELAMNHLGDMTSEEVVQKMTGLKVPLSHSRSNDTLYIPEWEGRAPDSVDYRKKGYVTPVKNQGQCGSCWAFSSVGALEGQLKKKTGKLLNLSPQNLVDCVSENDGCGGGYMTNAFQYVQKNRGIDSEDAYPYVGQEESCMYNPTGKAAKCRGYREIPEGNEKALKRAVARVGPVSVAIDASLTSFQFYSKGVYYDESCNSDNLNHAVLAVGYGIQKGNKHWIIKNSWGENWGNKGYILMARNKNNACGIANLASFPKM

[6] = target: Cathepsin G (Homo sapiens) (UniProt P08311); experiment: Inhibition of cathepsin G (unknown origin) at 10 uM
Caspase-8 (Homo sapiens) = Caspase-8 (Homo sapiens) (UniProt Q14790); experiment: Inhibition of caspase-8 (unknown origin) at 10 uM
[7] = target: Tryptase beta-2 (Homo sapiens) (UniProt P20231); experiment: Inhibition of tryptase b2 (unknown origin) at 10 uM relative to control
Caspase-1 (Homo sapiens) = Caspase-1 (Homo sapiens) (UniProt P29466); experiment: Inhibition of caspase-1 (unknown origin) at 10 uM
[8] = target: Prothrombin (Homo sapiens) (UniProt P00734); experiment: Inhibition of thrombin (unknown origin) at 10 uM relative to control
Caspase-4 (Homo sapiens) = Caspase-4 (Homo sapiens) (UniProt P49662); experiment: Inhibition of caspase-4 (unknown origin) at 10 uM
[9] = target: Tryptase beta-2 (Homo sapiens) (UniProt P20231); experiment: Inhibition of tryptase b2 (unknown origin) at 100 nM relative to control
Trypsin (Homo sapiens) [10] = target: T1, Trypsin (Homo sapiens); experiment: Inhibition of trypsin (unknown origin) at 1 uM relative to control; assay type: protein assay
[11] = target: Kallikrein-1 (Homo sapiens) (UniProt P06870); experiment: Inhibition of KLK1 (unknown origin) at 10 uM
Trypsin (Homo sapiens) [12] = target: T1, Trypsin (Homo sapiens); experiment: Inhibition of trypsin (unknown origin) at 100 nM relative to control; assay type: protein assay
[13] = target: Cathepsin S (Homo sapiens) (UniProt P25774); experiment: Inhibition of cathepsin S (unknown origin) at 10 uM relative to control
[14] = target: Cathepsin B (Homo sapiens) (UniProt P07858); experiment: Inhibition of cathepsin B (unknown origin) at 100 nM relative to control
OCI-Ly3 [15] = experiment: Antiproliferative activity against human OCI-LY3 cells assessed as growth inhibition treated every 48 hrs measured after 96 hrs by CellTiter-Glo assay; assay type: functional
[16] = target: Urokinase-type plasminogen activator (Homo sapiens) (UniProt P00749); experiment: Inhibition of urokinase (unknown origin) at 10 uM
[17] = target: Cathepsin S (Homo sapiens) (UniProt P25774); experiment: Inhibition of cathepsin S (unknown origin) at 100 nM relative to control
OCI-Ly3 [18] = experiment: Antitumor activity against human OCI-LY3 cells xenografted in ip dosed NOD Cg-rkdc SCID Il2rgtm1Wjl/SzJ mouse assessed as effect on tumor growth administered twice daily for 16 to 24 days measured 4 hrs post-last dose; assay type: functional, organism-based
[19] = Half life in mouse microsomes; assay type: ADME, Microsome
[20] = target: Caspase-10 (Homo sapiens) (UniProt Q92851); experiment: Inhibition of caspase-10 (unknown origin) at 10 uM
[21] = target: T3, Mucosa-associated lymphoid tissue lymphoma translocation protein 1 (Homo sapiens) (UniProt Q9UDY8); experiment: Inhibition of MALT1 (unknown origin) expressed in PMA/IO-stimulated human Raji Glosensor cells by reporter gene assay; assay type: cell-based
T3 sequence (whole entry): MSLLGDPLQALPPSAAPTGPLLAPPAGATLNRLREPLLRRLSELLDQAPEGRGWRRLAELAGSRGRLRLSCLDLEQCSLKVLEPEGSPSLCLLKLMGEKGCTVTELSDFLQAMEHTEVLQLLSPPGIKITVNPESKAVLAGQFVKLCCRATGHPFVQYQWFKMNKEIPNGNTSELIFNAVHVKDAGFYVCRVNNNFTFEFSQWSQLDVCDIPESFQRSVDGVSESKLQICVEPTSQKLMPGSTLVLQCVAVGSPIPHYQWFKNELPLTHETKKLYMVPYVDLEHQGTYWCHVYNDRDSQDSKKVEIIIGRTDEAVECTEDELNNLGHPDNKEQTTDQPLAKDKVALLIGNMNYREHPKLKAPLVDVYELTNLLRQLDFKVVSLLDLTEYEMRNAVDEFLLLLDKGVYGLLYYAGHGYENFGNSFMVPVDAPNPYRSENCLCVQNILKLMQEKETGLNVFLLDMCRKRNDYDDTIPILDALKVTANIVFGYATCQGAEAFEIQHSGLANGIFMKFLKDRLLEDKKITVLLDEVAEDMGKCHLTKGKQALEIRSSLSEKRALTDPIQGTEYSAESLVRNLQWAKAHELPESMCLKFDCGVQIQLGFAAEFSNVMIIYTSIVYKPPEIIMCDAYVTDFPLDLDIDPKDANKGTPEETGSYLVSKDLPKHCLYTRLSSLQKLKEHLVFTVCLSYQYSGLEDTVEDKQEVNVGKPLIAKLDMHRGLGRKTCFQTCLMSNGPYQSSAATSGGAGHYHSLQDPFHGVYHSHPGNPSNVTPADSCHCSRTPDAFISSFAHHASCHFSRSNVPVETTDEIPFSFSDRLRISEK

[22] = target: T4, Calpain1/2 (Homo sapiens) (UniProt P17655+P07384); experiment: Inhibition of calpain (unknown origin) at 1 uM relative to control; assay type: protein assay
[23] = target: T4, Calpain1/2 (Homo sapiens); experiment: Inhibition of calpain (unknown origin) at 10 uM relative to control; assay type: protein assay
Caspase-5 (Homo sapiens) = Caspase-5 (Homo sapiens) (UniProt P51878); experiment: Inhibition of caspase-5 (unknown origin) at 10 uM
[24] = target: Procathepsin L (Homo sapiens) (UniProt P07711); experiment: Inhibition of cathepsin L (unknown origin) at 10 uM relative to control
[25] = target: Cathepsin S (Homo sapiens) (UniProt P25774); experiment: Inhibition of cathepsin S (unknown origin) at 1 uM relative to control
[26] = target: Cathepsin D (Homo sapiens) (UniProt P07339); experiment: Inhibition of cathepsin D (unknown origin) at 10 uM
OCI-Ly1 = experiment: Antitumor activity against human OCI-LY1 cells xenografted in ip dosed NOD.CB17-Prkdc SCID mouse assessed as effect on tumor growth administered twice daily for 16 to 24 days measured 4 hrs post-last dose; assay type: functional, organism-based

Chain of Tryptase beta-2 (Homo sapiens) (P20231 whole entry): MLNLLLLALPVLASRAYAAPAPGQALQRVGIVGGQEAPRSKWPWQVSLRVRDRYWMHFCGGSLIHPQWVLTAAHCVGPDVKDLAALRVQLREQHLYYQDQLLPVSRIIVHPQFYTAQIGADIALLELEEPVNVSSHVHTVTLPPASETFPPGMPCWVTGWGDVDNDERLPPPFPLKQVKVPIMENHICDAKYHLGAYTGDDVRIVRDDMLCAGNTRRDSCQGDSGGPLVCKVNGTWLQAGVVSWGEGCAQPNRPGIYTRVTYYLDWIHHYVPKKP
Chain of Cathepsin S (Homo sapiens) (P25774 115-331 limits assumed): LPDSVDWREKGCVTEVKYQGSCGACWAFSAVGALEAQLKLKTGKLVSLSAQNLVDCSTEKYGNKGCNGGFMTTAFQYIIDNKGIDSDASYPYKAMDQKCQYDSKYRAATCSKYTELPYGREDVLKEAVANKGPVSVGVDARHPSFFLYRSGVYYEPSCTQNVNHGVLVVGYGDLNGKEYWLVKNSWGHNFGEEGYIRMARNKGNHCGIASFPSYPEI
T4 sequence (P07384 whole entry, looked up): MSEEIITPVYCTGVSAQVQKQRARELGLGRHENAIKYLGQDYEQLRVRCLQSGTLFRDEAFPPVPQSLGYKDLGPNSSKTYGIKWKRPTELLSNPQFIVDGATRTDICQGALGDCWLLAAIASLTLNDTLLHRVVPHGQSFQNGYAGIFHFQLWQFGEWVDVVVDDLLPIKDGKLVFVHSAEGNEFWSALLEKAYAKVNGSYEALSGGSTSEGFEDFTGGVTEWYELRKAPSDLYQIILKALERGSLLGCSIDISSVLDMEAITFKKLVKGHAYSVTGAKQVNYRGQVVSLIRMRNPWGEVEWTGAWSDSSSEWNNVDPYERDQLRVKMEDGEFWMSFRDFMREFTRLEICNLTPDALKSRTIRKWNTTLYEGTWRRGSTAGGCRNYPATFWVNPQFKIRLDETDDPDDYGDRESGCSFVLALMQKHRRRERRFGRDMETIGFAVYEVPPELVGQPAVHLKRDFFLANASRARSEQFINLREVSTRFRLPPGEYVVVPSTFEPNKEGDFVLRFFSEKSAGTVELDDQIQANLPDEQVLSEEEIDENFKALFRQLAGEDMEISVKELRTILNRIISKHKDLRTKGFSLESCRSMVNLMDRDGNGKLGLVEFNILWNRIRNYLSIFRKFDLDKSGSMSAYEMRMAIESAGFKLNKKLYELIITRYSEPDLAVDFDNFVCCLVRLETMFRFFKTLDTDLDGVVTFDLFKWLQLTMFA
T4 sequence (P17655 whole entry, looked up): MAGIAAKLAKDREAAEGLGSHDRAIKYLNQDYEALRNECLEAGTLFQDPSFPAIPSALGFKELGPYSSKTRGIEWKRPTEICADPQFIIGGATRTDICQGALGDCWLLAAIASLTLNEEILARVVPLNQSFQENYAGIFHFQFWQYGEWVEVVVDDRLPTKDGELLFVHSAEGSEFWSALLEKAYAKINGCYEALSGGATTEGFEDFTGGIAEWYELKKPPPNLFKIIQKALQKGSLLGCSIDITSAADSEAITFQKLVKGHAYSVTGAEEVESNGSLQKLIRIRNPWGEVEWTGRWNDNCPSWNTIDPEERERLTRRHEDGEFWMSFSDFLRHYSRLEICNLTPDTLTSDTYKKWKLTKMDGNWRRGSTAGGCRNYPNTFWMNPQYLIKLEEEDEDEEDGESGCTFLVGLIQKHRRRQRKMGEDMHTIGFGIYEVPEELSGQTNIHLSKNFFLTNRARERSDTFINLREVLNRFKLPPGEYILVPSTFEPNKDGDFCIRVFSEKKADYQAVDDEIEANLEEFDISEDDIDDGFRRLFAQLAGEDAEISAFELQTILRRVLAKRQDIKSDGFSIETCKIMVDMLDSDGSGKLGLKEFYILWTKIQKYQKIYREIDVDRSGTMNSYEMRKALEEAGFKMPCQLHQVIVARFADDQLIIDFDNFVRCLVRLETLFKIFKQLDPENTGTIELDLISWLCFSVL
Chain of Kallikrein-1 (Homo sapiens) (P06870 25-262 limits assumed): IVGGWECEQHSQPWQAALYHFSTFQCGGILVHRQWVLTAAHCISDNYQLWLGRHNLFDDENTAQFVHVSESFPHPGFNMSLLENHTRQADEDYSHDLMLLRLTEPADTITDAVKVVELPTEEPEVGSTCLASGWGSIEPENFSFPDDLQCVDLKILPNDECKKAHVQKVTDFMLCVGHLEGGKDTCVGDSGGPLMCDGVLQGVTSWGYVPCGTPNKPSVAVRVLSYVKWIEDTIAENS
Chain of Caspase-5 (Homo sapiens) (P51878 137-327 limits assumed): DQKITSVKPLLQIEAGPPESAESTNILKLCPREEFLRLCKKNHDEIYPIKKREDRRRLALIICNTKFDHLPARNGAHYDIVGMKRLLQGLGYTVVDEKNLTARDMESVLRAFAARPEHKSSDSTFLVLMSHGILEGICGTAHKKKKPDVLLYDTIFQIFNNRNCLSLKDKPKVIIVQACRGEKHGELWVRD
Chain of Caspase-5 (Homo sapiens) (P51878 347-434 limits assumed): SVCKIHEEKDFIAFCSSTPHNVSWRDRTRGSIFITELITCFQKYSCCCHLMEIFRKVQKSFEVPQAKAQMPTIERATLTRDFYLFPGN
Chain of Caspase-10 (Homo sapiens) (Q92851 220-415 limits assumed): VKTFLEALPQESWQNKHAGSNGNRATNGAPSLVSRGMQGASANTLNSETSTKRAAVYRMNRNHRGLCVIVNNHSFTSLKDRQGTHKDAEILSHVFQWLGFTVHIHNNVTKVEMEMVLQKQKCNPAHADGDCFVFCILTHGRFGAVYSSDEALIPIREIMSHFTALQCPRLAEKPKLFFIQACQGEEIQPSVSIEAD
Chain of Caspase-10 (Homo sapiens) (Q92851 416-521 limits assumed): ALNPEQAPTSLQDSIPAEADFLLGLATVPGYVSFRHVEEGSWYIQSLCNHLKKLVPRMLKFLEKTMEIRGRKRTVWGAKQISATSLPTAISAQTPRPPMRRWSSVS
Chain of Coagulation factor X (Homo sapiens) (P00742 41-179 limits assumed): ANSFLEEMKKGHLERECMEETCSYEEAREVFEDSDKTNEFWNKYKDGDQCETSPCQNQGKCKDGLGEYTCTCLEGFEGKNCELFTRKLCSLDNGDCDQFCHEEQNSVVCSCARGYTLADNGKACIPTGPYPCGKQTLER
Chain of Coagulation factor X (Homo sapiens) (P00742 235-488 limits assumed): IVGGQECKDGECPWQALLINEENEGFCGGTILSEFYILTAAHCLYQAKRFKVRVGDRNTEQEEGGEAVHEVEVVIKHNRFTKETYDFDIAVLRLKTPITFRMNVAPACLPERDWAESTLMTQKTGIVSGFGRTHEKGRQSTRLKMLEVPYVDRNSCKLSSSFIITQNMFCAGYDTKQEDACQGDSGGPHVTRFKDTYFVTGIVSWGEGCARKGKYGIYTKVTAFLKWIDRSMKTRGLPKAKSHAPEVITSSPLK
Chain of Procathepsin L (Homo sapiens) (P07711 114-333 limits assumed): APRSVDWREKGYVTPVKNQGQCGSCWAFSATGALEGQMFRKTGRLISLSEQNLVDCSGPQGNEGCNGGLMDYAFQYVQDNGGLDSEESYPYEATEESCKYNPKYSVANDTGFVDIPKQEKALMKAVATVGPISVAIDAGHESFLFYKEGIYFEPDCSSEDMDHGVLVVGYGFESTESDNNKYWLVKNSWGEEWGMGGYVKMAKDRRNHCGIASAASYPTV
Chain of Caspase-4 (Homo sapiens) (P49662 81-270 limits assumed): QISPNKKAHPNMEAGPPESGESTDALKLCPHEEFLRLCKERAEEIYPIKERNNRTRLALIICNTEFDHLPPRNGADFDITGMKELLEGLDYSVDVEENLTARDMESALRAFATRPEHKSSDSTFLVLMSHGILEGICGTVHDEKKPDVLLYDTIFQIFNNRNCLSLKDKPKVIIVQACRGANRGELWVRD
Chain of Caspase-4 (Homo sapiens) (P49662 290-377 limits assumed): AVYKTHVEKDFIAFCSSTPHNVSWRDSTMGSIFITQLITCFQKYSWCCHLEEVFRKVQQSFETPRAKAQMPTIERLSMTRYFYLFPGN
Chain of Cathepsin D (Homo sapiens) (P07339 65-162 limits assumed): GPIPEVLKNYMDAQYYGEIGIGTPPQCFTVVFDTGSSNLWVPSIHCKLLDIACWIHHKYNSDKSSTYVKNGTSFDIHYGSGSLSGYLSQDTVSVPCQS
Chain of Cathepsin D (Homo sapiens) (P07339 169-412 limits assumed): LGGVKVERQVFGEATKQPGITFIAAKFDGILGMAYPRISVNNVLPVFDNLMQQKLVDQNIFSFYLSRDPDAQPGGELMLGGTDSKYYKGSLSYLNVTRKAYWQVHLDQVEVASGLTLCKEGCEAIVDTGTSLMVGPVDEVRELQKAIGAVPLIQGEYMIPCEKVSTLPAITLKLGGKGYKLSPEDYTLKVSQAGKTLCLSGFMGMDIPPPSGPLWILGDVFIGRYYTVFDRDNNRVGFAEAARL
Chain of Cathepsin G (Homo sapiens) (P08311 whole entry): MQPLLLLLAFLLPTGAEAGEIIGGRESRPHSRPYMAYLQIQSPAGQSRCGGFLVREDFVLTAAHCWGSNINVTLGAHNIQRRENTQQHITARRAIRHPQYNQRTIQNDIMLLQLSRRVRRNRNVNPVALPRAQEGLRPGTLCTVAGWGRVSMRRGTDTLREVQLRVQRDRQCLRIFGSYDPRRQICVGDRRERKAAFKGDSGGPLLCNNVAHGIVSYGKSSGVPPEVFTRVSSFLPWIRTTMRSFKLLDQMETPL
Chain of Caspase-1 (Homo sapiens) (P29466 120-297 limits assumed): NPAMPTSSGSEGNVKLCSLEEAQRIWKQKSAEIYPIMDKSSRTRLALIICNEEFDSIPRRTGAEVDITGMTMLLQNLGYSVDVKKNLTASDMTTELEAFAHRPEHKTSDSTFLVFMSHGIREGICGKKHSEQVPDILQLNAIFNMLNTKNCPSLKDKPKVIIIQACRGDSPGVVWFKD
Chain of Caspase-1 (Homo sapiens) (P29466 317-404 limits assumed): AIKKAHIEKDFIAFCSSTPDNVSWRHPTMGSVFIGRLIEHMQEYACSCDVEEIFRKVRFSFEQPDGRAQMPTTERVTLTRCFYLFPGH

For `CC(C)[C@H](NC(=O)c1ccc(Br)cc1)C(=O)N1CCC[C@H]1C(=O)N[C@@H](CCCNC(=N)N)C(=O)CF`, the inhibition (Trypsin (Homo sapiens) [1]) was 95.3%, the inhibition (Caspase-6 (Homo sapiens)) was “Active” and the inhibition [2] was 92.5%. For the same molecule, the inhibition [3] was 14%, the inhibition [4] was “Active” and the inhibition [5] was 97.1%. The inhibition [6] was “Active”, the inhibition (Caspase-8 (Homo sapiens)) was “Active” and the inhibition [7] was 79%. For the same molecule, the inhibition (Caspase-1 (Homo sapiens)) was “Active”, the inhibition [8] was 83% and the inhibition (Caspase-4 (Homo sapiens)) was “Active”. For the same molecule, the inhibition [9] was 6.1%, the inhibition (Trypsin (Homo sapiens) [10]) was 98% and the inhibition [11] was “Active”. For the same molecule, the inhibition (Trypsin (Homo sapiens) [12]) was 92.9%, the inhibition [13] was 99.1% and the inhibition [14] was 34.2%. For the same molecule, the GI50 (OCI-Ly3 [15]) was 0.13 µM, the inhibition [16] was “Active” and the inhibition [17] was 78.2%. For the same molecule, the Activity (OCI-Ly3 [18]) was “Active”, the t1/2 [19] was > 2 h and the inhibition [20] was “Active”. For the same molecule, the IC50 [21] was 0.07 to 0.071 µM, the inhibition [22] was 25.6% and the inhibition [23] was 105%. The inhibition (Caspase-5 (Homo sapiens)) was “Active”, the inhibition [24] was 44.9% and the inhibition [25] was 83.9%. The inhibition [26] was “Active” and the Activity (OCI-Ly1) was “Active”.
